Results reported in patent US11938121B2, “Treatment of infections and biofilm formation using a cellulose synthase inhibitor” (Purdue Research Foundation, priority 2020, dated 2024).
Where two headings read alike, the source gives them in different places.

Tests used:
[1] = target: T1, GFP-CESA6c: GFP-tagged central cytosolic domain of AtCESA6 (cellulose synthase, CESA6) with a His-SUMO tag (Arabidopsis thaliana, UniProt Q94JQ6); test: Microscale thermophoresis (MST) binding to purified GFP-tagged CESA6c (wild-type); conditions: read-out: Kd, thermophoresis binding curve, GFP-CESA6c
T1 construct: His-SUMO; made in house; host or cells: E. coli
T1 sequence (Q94JQ6 322-868 limits assumed): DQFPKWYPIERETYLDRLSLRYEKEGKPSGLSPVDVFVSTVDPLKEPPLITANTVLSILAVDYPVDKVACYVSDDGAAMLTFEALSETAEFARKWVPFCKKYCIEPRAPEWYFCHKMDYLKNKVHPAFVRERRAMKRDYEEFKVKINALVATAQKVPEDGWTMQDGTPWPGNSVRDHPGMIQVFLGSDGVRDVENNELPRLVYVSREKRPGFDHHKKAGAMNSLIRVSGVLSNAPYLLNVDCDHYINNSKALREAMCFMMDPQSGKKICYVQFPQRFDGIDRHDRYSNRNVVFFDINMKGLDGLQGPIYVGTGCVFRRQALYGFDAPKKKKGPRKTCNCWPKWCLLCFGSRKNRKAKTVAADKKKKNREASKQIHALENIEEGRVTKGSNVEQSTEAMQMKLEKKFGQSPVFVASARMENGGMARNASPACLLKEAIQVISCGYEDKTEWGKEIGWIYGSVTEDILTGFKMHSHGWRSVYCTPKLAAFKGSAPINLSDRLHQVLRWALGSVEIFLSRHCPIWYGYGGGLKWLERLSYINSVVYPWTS
From the text: FIGS. 3A-3Q. […] FIG. 3A to FIG. 3G. […] FIG. 3A. Representative 5-day-old dark-grown Arabidopsis Col-0 seedlings grown on growth medium supplemented with different concentrations of ES20 or ES20-1. Scale bar: 1 cm. FIG. 3B. Quantification of hypocotyl length of 5-day-old dark-grown Arabidopsis Col-0 seedlings described in FIG. 3A. Data represent mean±SD (n=12 seedlings). FIG. 3C. Quantification of crystalline cellulose content in the hypocotyl cell walls of 7-day-old dark-grown Col-0 seedlings grown on growth medium supplemented with DMSO (0.1%), 1 μM ES20, or 1 μM ES20-1. Data represent mean±SD (n=3 biological replicates). FIG. 3D and FIG. 3E. […] FIG. 3D. Representative image of 6-day-old rice seedlings grown in sterile water supplemented with DMSO (0.1%), 20 μM ES20, or 20 μM ES20-1. Scale bar: 1 cm. FIG. 3E. Quantification of root length of rice seedlings as described in FIG. 3D. Data represent mean±SD (n=10 seedlings). FIG. 3F and FIG. 3G. […] FIG. 3F. Representative image of 6-day-old maize seedlings grown in sterile water supplemented with DMSO (0.1%), 20 μM ES20, or 20 μM ES20-1. Scale bar: 1 cm. FIG. 3G. Quantification of root length of maize seedlings as described in FIG. 3F. Data represent mean±SD (n=12 seedlings). […] FIG. 3H. Representative immunoblot from a DARTS assay of ES20-1 and YFP-AtCESA6. FIG. 3I. Quantitative analysis of the band intensity of YFP-AtCESA6 and SEC12 in ES20-1-treated samples divided by that of DMSO-treated samples in the DARTS assay described in FIG. 3H. Data represent mean±SD (n=6 biological replicates). FIGS. 3J-3N. […] FIG. 3J. Coomassie blue staining of purified GFP-tagged CESA6c with a His-SUMO tag (lane 2). FIGS. 3K, 3L, 3M, 3N. […] FIG. 3O. Coomassie blue staining of purified GFP-tagged CESA6c^P595S with a His-SUMO tag (lane 2). FIG. 3P and FIG. 3Q. […] Statistically significant differences in FIG. 3B were determined using one-way ANOVA followed by Tukey's multiple comparisons test. Lower-case letters represent ANOVA results for plants grown on medium with 0.1% DMSO, different concentrations of ES20 or ES20-1. […]

[2] = target: T2, GFP-CESA6c^P595S: GFP-tagged central cytoplasmic domain of AtCESA6 (cellulose synthase, CESA6) carrying missense mutation P595S, with a His-SUMO tag (Arabidopsis thaliana, UniProt Q94JQ6, P595S); test: Microscale thermophoresis (MST) binding to purified GFP-tagged CESA6c^P595S (missense mutant)
T2 construct: We purified AtCESA6 central cytoplasmic domain carrying missense mutation P595S (CESA6c^P595S); His-SUMO; made in house; host or cells: E. coli
From the text: FIGS. 3A-3Q. […] FIG. 3A to FIG. 3G. […] FIG. 3A. Representative 5-day-old dark-grown Arabidopsis Col-0 seedlings grown on growth medium supplemented with different concentrations of ES20 or ES20-1. Scale bar: 1 cm. FIG. 3B. Quantification of hypocotyl length of 5-day-old dark-grown Arabidopsis Col-0 seedlings described in FIG. 3A. Data represent mean±SD (n=12 seedlings). FIG. 3C. Quantification of crystalline cellulose content in the hypocotyl cell walls of 7-day-old dark-grown Col-0 seedlings grown on growth medium supplemented with DMSO (0.1%), 1 μM ES20, or 1 μM ES20-1. Data represent mean±SD (n=3 biological replicates). FIG. 3D and FIG. 3E. […] FIG. 3D. Representative image of 6-day-old rice seedlings grown in sterile water supplemented with DMSO (0.1%), 20 μM ES20, or 20 μM ES20-1. Scale bar: 1 cm. FIG. 3E. Quantification of root length of rice seedlings as described in FIG. 3D. Data represent mean±SD (n=10 seedlings). FIG. 3F and FIG. 3G. […] FIG. 3F. […] Quantification of root length of maize seedlings as described in FIG. 3F. […] Quantitative analysis of the band intensity of YFP-AtCESA6 and SEC12 in ES20-1-treated samples divided by that of DMSO-treated samples in the DARTS assay described in FIG. 3H. […] Statistically significant differences in FIG. 3B were determined using one-way ANOVA followed by Tukey's multiple comparisons test. […]

[3] = target: T3, GFP-CESA6c (central cytosolic domain of AtCESA6) (Arabidopsis thaliana, UniProt Q94JQ6); test: MST assay with GFP-CESA6c; assay type: binding; conditions: for interaction with CESA6c: 100 nM GFP-CESA6c
T3 construct: made in house; host or cells: E. coli
From the text: To obtain the central cytosolic domain of AtCESA6 for the MST assay, we inserted the GFP coding sequence into the SacI and PstI restriction enzyme sites of the pRSF-Duet-1 vector (Huang et al., 2020). The GFP coding sequence was amplified from the pUBN-GFP-DEST vector. The sequence encoding the central cytosolic domain of CESA6 (CESA6c) was amplified from Col-0 cDNA and fused with GFP at the C-terminus. CESA6c construct was used as a template for creating CESA6c^P595S construct by site-directed mutagenesis. Protein purification was performed as previously described (Huang et al., 2020).
MST assays were carried out using a Monolith NT.115 (NanoTemper) machine at the Chemical Genomics Facility at Purdue University. […] The ES20-1 was dissolved in DMSO, and the final concentration of DMSO was 5% (vol/vol). MST standard capillaries were used to load the samples into the MST instrument. Triplicate reactions were performed for each test. The MST data were processed using MO. Affinity Analysis Version 2.3 software.

[4] = test system: AtCESA6 carrying missense mutations in prc1-1; test: Root growth of transgenic plants expressing mutated AtCESA6 in prc1-1; assay type: in vivo, Arabidopsis thaliana; conditions: D562N, D564N, D785N, Q823E, R826A, W827A in prc1-1
From the text: We then examined whether transgenic plants expressing AtCESA6 with predicted missense mutations at the catalytic site in prc1-1 background would have altered sensitivity to active ES20 analogs. […] However, the responses of two transgenic lines expressing AtCESA6 carrying missense mutations outside of the catalytic site (L365F and D395N) to nine active ES20 analogs were similar to those of wild-type plants (FIG. 2B).
To test the inhibitory effects of different chemicals on plant growth, wild-type Arabidopsis Col-0 plants were used. The seeds of plants used for growth assays or live cell imaging were sequentially sterilized with 50% bleach and 75% ethanol. […] To quantify the inhibitory effects of different ES20 active analogs on the root growth of Arabidopsis wildtype, EMS mutants, and transgenic plants expressing mutated AtCESA6 in prc1-1 background, sterilized Col-0, mutants, and transgenic plants seeds were sown on gridded Petri plates containing ½-strength MS medium supplemented with different concentrations of ES20 analogs. […] The plates were scanned using an Epson Perfection V550 scanner after 7 days of growth, and the root lengths of plants were quantified using ImageJ software. […] The Petri dishes were scanned, and hypocotyl length was measured using ImageJ. […]

[5] = test system: AtCESA6 (cesa6 alleles es20r1-es20r15); test: Root growth of EMS-induced cesa6 mutants es20r1-es20r15 on ES20 analogs; assay type: in vivo, Arabidopsis thaliana; conditions: compared with wild-type/control plants
From the text: A subset of active ES20 analogs likely target the catalytic domain of AtCESA6. […] Since ES20 and the nine active ES20 analogs share highly similar structures, we reasoned whether these active analogs target AtCESA6 as well. We therefore examined the growth of es20r1-es20r15 plants in the presence of nine active ES20 analogs compared to wild-type plants.
To test the inhibitory effects of different chemicals on plant growth, wild-type Arabidopsis Col-0 plants were used. The seeds of plants used for growth assays or live cell imaging were sequentially sterilized with 50% bleach and 75% ethanol. […] To quantify the inhibitory effects of different ES20 active analogs on the root growth of Arabidopsis wildtype, EMS mutants, and transgenic plants expressing mutated AtCESA6 in prc1-1 background, sterilized Col-0, mutants, and transgenic plants seeds were sown on gridded Petri plates containing ½-strength MS medium supplemented with different concentrations of ES20 analogs. […] The plates were scanned using an Epson Perfection V550 scanner after 7 days of growth, and the root lengths of plants were quantified using ImageJ software. […] The Petri dishes were scanned, and hypocotyl length was measured using ImageJ. Transgenic plants expressing fluorescence-tagged PIN2, PIP2a, HDEL, VHA-a1, and GOT1p were as reported previously (Xu and Scheres, Plant Cell, 2005, 17, 525-536).

| SMILES | Kd ([1]; FIGS. 3K-3M, 100 nM GFP-CESA6c purified from E. coli, pH 7.5, 10 mM MgCl2, 0.05% Tween 20, 5% DMSO, triplicate) [µM] | Kd [2] [µM] | interaction with CESA6c [3] | Kd ([1]; FIG. 3N, GFP-CESA6c purified from E. coli, pH 7.5, 10 mM MgCl2, 0.05% Tween 20, triplicate) [µM] | sensitivity of transgenic lines with AtCESA6 catalytic site mutations [4] | relative binding affinity to CESA6c ([3]; MST) | sensitivity of es20r1-es20r15 mutants in growth [5] |
| --- | --- | --- | --- | --- | --- | --- | --- |
| COc1ccc(C(=O)NC(=S)NNC(=O)c2ccccc2C)cc1 [ES20] | 9.7 ± 3.3 | 24.5 ± 26.9 | – | – | – | – | – |
| CC1(C)S[C@@H]2[C@H](NC(=O)[C@H](N)c3ccccc3)C(=O)N2[C@H]1C(=O)O [ampicillin, reference compound] | – | – | did not interact | – | – | – | – |
| Cc1cccnc1NC(=S)NC(=O)c1cccc([N+](=O)[O-])c1C [ES20-9] | – | – | also interacts | 5.1 ± 4.8 | Reduced sensitivity | slightly lower than ES20-1 | 14 out of 15 mutants except es20r13 show reduced sensitivity |
